The text below walks through data of patent publication US8691864B2, “Agents useful for reducing amyloid precursor protein and treating dementia and methods of use thereof” (priority 2000, dated 2014).

One series has as its system SH-SY-5Y Cells. Put plainly: MTS toxicity assay in SHSY5Y cells. The series is classed as cell-based, human. (In general: Formazan colour is commonly taken as a measure of viable cells.)
The subject of a further series is secreted APP. Description: ELISA for secreted APP in SHSY5Y cells. Type of series: cell-based, human. As to conditions: 16 hours. For orientation: ELISA stands for enzyme-linked immunosorbent assay.

Consider `Cc1cc2c(cc1O)[C@]1(C)CCN(C)C1N2C` (stereo partly drawn) [MES 9267], for which the “APP Toxicity SH-SY-5Y Cells (MTS assay)” value in the series on SH-SY-5Y Cells (Dose 0.08 uM) amounted to 101.5 % vehicle control; in the series on SH-SY-5Y Cells (Dose 0.25 uM) it was 102 % vehicle control; in the series with SH-SY-5Y Cells (Dose 0.74 uM), 101.9 % vehicle control; in the series on SH-SY-5Y Cells (Dose 2 uM) it was 97.98 % vehicle control; in the series with SH-SY-5Y Cells (Dose 6 uM), 96.72 % vehicle control; in the series on SH-SY-5Y Cells (Dose 20 uM) it was 15.52 % vehicle control. The “APP Secretion by SH-SY-5Y Cells” value is listed as 97.8 % vehicle control in the series with secreted APP (Dose 0.08 uM); 97.43 % vehicle control with secreted APP (Dose 0.25 uM); 97.43 % vehicle control with secreted APP (Dose 0.74 uM); 93.68 % vehicle control in the series on secreted APP (Dose 2 uM); 68.64 % vehicle control in the series on secreted APP (Dose 6 uM); 22.22 % vehicle control with secreted APP (Dose 20 uM).
`CN1c2ccc(OC3CCCCO3)cc2[C@]2(C)CCNC12` (single isomer, unassigned; (-)) [MES 9320, (−)-O-Tetrahydropyranyl-N-1-noreseroline]: the “APP Toxicity SH-SY-5Y Cells (MTS assay)” value with SH-SY-5Y Cells (Dose 2 uM) is 92 % vehicle control; with SH-SY-5Y Cells (Dose 6 uM) it was 84 % vehicle control; with SH-SY-5Y Cells (Dose 20 uM), 28 % vehicle control. Further, the “APP Secretion by SH-SY-5Y Cells” value is 103.15 % vehicle control in the series on secreted APP (Dose 2 uM), 91.8 % vehicle control in the series with secreted APP (Dose 6 uM) and 15.2 % vehicle control in the series with secreted APP (Dose 20 uM).
Regarding `Br.CC1=C(c2ccc(O)cc2)CN2CCC[C@H]2C1.O` [MES 9330], the “APP Toxicity SH-SY-5Y Cells (MTS assay)” value in the series on SH-SY-5Y Cells (Dose 2 uM) was 99.05 % vehicle control; in the series with SH-SY-5Y Cells (Dose 6 uM), 98.45 % vehicle control; in the series with SH-SY-5Y Cells (Dose 20 uM) it was 97.95 % vehicle control. Besides, the entries for the “APP Secretion by SH-SY-5Y Cells” value with secreted APP (Dose 2 uM), with secreted APP (Dose 6 uM) and with secreted APP (Dose 20 uM) were 99.6 % vehicle control, 101.5 % vehicle control and 110.65 % vehicle control, respectively.
Consider `COc1ccc2c(c1)C(O)(c1ccccc1)C(=O)N2C` (stereo not drawn) [MES 9319], for which the “APP Toxicity SH-SY-5Y Cells (MTS assay)” value in the series with SH-SY-5Y Cells (Dose 2 uM) came out at 99.8 % vehicle control; with SH-SY-5Y Cells (Dose 6 uM), 101.05 % vehicle control; with SH-SY-5Y Cells (Dose 20 uM), 102.7 % vehicle control. Besides, the “APP Secretion by SH-SY-5Y Cells” value in the series on secreted APP (Dose 2 uM) is given as 108.95 % vehicle control; in the series with secreted APP (Dose 6 uM), 114.1 % vehicle control; in the series with secreted APP (Dose 20 uM), 112.8 % vehicle control.
`COc1ccc2c(c1)[C@@]1(C)CC[N+](C)(C)C1N2Cc1ccccc1.[I-]` (stereo partly drawn) [MES 9234]: the figures for the “APP Toxicity SH-SY-5Y Cells (MTS assay)” value with SH-SY-5Y Cells (Dose 2 uM), with SH-SY-5Y Cells (Dose 6 uM) and in the series on SH-SY-5Y Cells (Dose 20 uM) were 102.55 % vehicle control, 99.75 % vehicle control and 99.3 % vehicle control, respectively. Also, the figures for the “APP Secretion by SH-SY-5Y Cells” value in the series on secreted APP (Dose 2 uM), with secreted APP (Dose 6 uM) and in the series on secreted APP (Dose 20 uM) were 106.4 % vehicle control, 96.5 % vehicle control and 98.8 % vehicle control, respectively.
On to `CN1C(=O)C(=O)c2ccccc21` [MES 9312], for which the “APP Toxicity SH-SY-5Y Cells (MTS assay)” value with SH-SY-5Y Cells (Dose 2 uM) was found to be 99.95 % vehicle control; in the series with SH-SY-5Y Cells (Dose 6 uM), 103.85 % vehicle control; with SH-SY-5Y Cells (Dose 20 uM), 106.95 % vehicle control. Further, the results for the “APP Secretion by SH-SY-5Y Cells” value in the series on secreted APP (Dose 2 uM), in the series on secreted APP (Dose 6 uM) and in the series on secreted APP (Dose 20 uM) were 105.4 % vehicle control, 101.7 % vehicle control and 96.65 % vehicle control, respectively.
As to `COc1ccc2c(c1)[C@](C)(CCN)C(=O)N2C.Cl` [MES 9314], the “APP Toxicity SH-SY-5Y Cells (MTS assay)” value in the series on SH-SY-5Y Cells (Dose 2 uM) came out at 100.15 % vehicle control; in the series with SH-SY-5Y Cells (Dose 6 uM), 100.85 % vehicle control; in the series with SH-SY-5Y Cells (Dose 20 uM) it was 100.6 % vehicle control. Further, the “APP Secretion by SH-SY-5Y Cells” value in the series with secreted APP (Dose 2 uM) is recorded as 111.25 % vehicle control; in the series on secreted APP (Dose 6 uM), 99.15 % vehicle control; in the series with secreted APP (Dose 20 uM), 109.4 % vehicle control.
Regarding `COc1ccc2c(c1)[C@]1(C)CCNC1N2` (stereo partly drawn) [MES 9243], the “APP Toxicity SH-SY-5Y Cells (MTS assay)” value with SH-SY-5Y Cells (Dose 2 uM) was found to be 99.1 % vehicle control; in the series with SH-SY-5Y Cells (Dose 6 uM) it was 98.4 % vehicle control; in the series with SH-SY-5Y Cells (Dose 20 uM) it was 99 % vehicle control. In addition, the figures for the “APP Secretion by SH-SY-5Y Cells” value with secreted APP (Dose 2 uM), in the series on secreted APP (Dose 6 uM) and in the series on secreted APP (Dose 20 uM) were 88.95 % vehicle control, 95.25 % vehicle control and 100.55 % vehicle control, respectively.
`COc1ccc2[nH]cc(CCN)c2c1.Cl` [MES 9321]: the results for the “APP Toxicity SH-SY-5Y Cells (MTS assay)” value in the series with SH-SY-5Y Cells (Dose 2 uM), in the series on SH-SY-5Y Cells (Dose 6 uM) and in the series on SH-SY-5Y Cells (Dose 20 uM) were 99.9 % vehicle control, 101.15 % vehicle control and 99.45 % vehicle control, respectively. Besides, the “APP Secretion by SH-SY-5Y Cells” value with secreted APP (Dose 2 uM) stood at 97.95 % vehicle control; in the series on secreted APP (Dose 6 uM) it was 98.1 % vehicle control; in the series with secreted APP (Dose 20 uM) it was 100.5 % vehicle control.
As to `C/N=C(\C)c1cccc(OC)c1` [MES 9270], the “APP Toxicity SH-SY-5Y Cells (MTS assay)” value in the series on SH-SY-5Y Cells (Dose 2 uM) turned out to be 99.4 % vehicle control; with SH-SY-5Y Cells (Dose 6 uM), 101.1 % vehicle control; in the series with SH-SY-5Y Cells (Dose 20 uM) it was 100.4 % vehicle control. Further, the “APP Secretion by SH-SY-5Y Cells” value is reported as 95.8 % vehicle control in the series on secreted APP (Dose 2 uM), 95.9 % vehicle control in the series with secreted APP (Dose 6 uM) and 98.15 % vehicle control in the series on secreted APP (Dose 20 uM).
For `CN(C)Cc1cc2c(cc1O)[C@]1(C)CCN(C)C1N2C` (stereo partly drawn) [MES 9266], the “APP Toxicity SH-SY-5Y Cells (MTS assay)” value in the series on SH-SY-5Y Cells (Dose 2 uM) was 96.55 % vehicle control; in the series on SH-SY-5Y Cells (Dose 6 uM) it was 97.75 % vehicle control; in the series with SH-SY-5Y Cells (Dose 20 uM) it was 94.15 % vehicle control. For the same molecule, the “APP Secretion by SH-SY-5Y Cells” value was 94.4 % vehicle control in the series with secreted APP (Dose 2 uM), 95.2 % vehicle control in the series on secreted APP (Dose 6 uM) and 94.85 % vehicle control in the series with secreted APP (Dose 20 uM).
`COc1ccc2c(c1)[C@]1(C)CCN(C)C1N2Cc1ccccc1` (single isomer, unassigned) [MES 9202]: the “APP Toxicity SH-SY-5Y Cells (MTS assay)” value was found to be 99.15 % vehicle control in the series with SH-SY-5Y Cells (Dose 2 uM), 97.85 % vehicle control in the series with SH-SY-5Y Cells (Dose 6 uM) and 90.25 % vehicle control with SH-SY-5Y Cells (Dose 20 uM). For the same molecule, the figures for the “APP Secretion by SH-SY-5Y Cells” value in the series with secreted APP (Dose 2 uM), in the series on secreted APP (Dose 6 uM) and in the series on secreted APP (Dose 20 uM) were 94.4 % vehicle control, 107.55 % vehicle control and 110.05 % vehicle control, respectively.
For the molecule `CN1CC[C@]2(C)c3cc(O)ccc3N(Cc3ccccc3)C12` (stereo partly drawn) [MES 9215], the “APP Toxicity SH-SY-5Y Cells (MTS assay)” value in the series on SH-SY-5Y Cells (Dose 2 uM) is 92.3 % vehicle control; in the series with SH-SY-5Y Cells (Dose 6 uM) it was 78.6 % vehicle control; in the series on SH-SY-5Y Cells (Dose 20 uM), 12.9 % vehicle control. Besides, the “APP Secretion by SH-SY-5Y Cells” value with secreted APP (Dose 2 uM) was 94.55 % vehicle control; with secreted APP (Dose 6 uM), 108.1 % vehicle control; in the series with secreted APP (Dose 20 uM), 6.2 % vehicle control.
